Drawing on patent US20250049806A1, “PHARMACEUTICAL COMPOSITION FOR PROVIDING TREATMENT FOR OR PREVENTING ALPORT SYNDROME” (UBE Corporation, priority 2021, published 2025), this text covers Papp A→B for 18 molecules.

The term Papp A→B denotes how fast a substance crosses the layer from the apical side.

This data set in a line: Transcellular transport test using Caco2 cell. The format is in vitro ADME. To be noted: human, Caco-2, apical-to-basolateral (A-to-B), pH=7.4, 10 µM compound. The procedure:
Caco2 cells (purchased from ATCC) were cultured in DMEM medium (Thermo Fisher Scientific, Inc., 11965) containing 10% FBS (Thermo Fisher Scientific, Inc., 10082) and 1% penicillin/streptomycin/amphotericin B (Thermo Fisher Scientific, Inc., 15240). A transcellular transport test was carried out in accordance with MultiScreen Caco2 Drug Transport Assembly in a 96-well system (Application Note AN1727EN, MultiScreen Caco-2 Assay System, Merck) by partially modifying it. The Caco2 cells were inoculated at a cell density of 4×10^4 cells/well onto a micropore polycarbonate insert of a 96-well plate (Merck, Millcell-96 culture insert plate 0.4 μm pore size, well membrane area=0.11 cm^2, PSHT004S5) and cultured for 20 to 22 days, and the resulting monolayer was used in the transcellular transport test. The medium of the inoculated cells was replaced with a fresh one every 3 to 4 days.
Apical-to-basolateral (A-to-B) transport in the Caco2 cell monolayer membrane was performed by using HBSS (Thermo Fisher Scientific, Inc., 14025) medium (pH=7.4) containing 20 mM HEPES (Thermo Fisher Scientific, Inc., 15630), and adding HEPES-containing HBSS medium containing 10 µM compound (a 10 mM solution of the compound in DMSO was added at a 1000-fold dilution; final DMSO concentration: 0.1%) at 75 μL/well to the apical side and HEPES-containing HBSS medium supplemented with no compound at 250 μL/well to the basolateral side, followed by culture at 37° C. for 90 minutes. After culture, a 100 μL aliquot was collected from the basolateral side, and the concentration of a permeated compound was measured by LC-MS/MS under measurement conditions mentioned later. Papp (apparent permeability; cm/sec) was calculated from the determined concentration. Papp was determined according to the expression given below by calculating the slope (dA/dt; nmol/sec) of a straight line drawn between two points 0 minutes and zero amount of the compound in a graph plotted with an assay time (90 min) on the abscissa against the amount of the compound in the solution on the permeated side on the ordinate. As for an assay concentration, the concentration in the compound in the HEPES-containing HBSS medium containing the added compound was measured by UV-HPLC under measurement conditions mentioned later.
C0: assay concentration, S: plate membrane area=0.11 cm^2
• LC: LC20 or LC30 HPLC system manufactured by Shimadzu Corp. • Column: Phenomenex Kinetex C18 (50 mm×2.1 mm, 2.6 μm) • Column temperature: 40° C. • Flow rate: 0.3 mL/min • Mobile phase A: 0.1% aqueous formic acid solution • Mobile phase B: 0.1% formic acid, 50% acetonitrile/methanol mixed solution • Gradient: 0-2 min; A/B=90/10 to 10/90, 2-3 min; A/B=10/90, 3-3.01 min; A/B=10/90 to 90/10 • MS: Q-Trap3200 manufactured by AB Sciex Pte. Ltd. • Ionization: ESI • Mode: Positive
• LC: LC20 or LC30 HPLC system manufactured by Shimadzu Corp. • Column: Phenomenex Kinetex C18 (100 mm×2.1 mm, 2.6 μm) • Column temperature: 40° C. • Flow rate: 0.25 mL/min • Mobile phase A: 0.1% aqueous formic acid solution • Mobile phase B: 0.1% formic acid, 50% acetonitrile/methanol mixed solution • Gradient: 0-3 min; A/B=90/10, 3-11 min; A/B=90/10 to 5/95, 11-15 min; A/B=5/95, 15-15.1 min; A/B=5/95 to 90/10 • UV detector: photodiode array detector
A: Papp>1×10^−6 (cm/sec), B: 1×10^−6 (cm/sec)≥Papp>5×10^−7 (cm/sec), C: 5×10^−7 (cm/sec)≥Papp>1×10^−7 (cm/sec), or D: Papp≤1×10^−7 (cm/sec).
A general note: Caco-2 cells form a polarised layer with tight junctions and transporters.
For the molecule `Cc1ccc([C@H](CC(=O)O)NC(=O)CNC(=O)c2cc(NC3=NCC(F)CN3)c3cn[nH]c3c2)cc1C(F)(F)F` (stereo partly drawn) [14-(b), (3S)-3-(2-(4-((5-fluoro-1,4,5,6-tetrahydropyrimidin-2-yl)amino)-1H-indazole-6-carboxamido)acetamido)-3-(4-methyl-3-(trifluoromethyl)phenyl)propanoic acid], the Papp A→B at 90 min, 10 µM was over 1 ×10⁻⁶ cm/s. Turning to `O=C(O)C[C@H](NC(=O)CNC(=O)c1cc(NC2=NCC(F)CN2)c2c(F)n[nH]c2c1)c1cc(Cl)cc(C(F)(F)F)c1` (stereo partly drawn) [48-(b), (3S)-3-(3-chloro-5-(trifluoromethyl)phenyl)-3-(2-(3-fluoro-4-((5-fluoro-1,4,5,6-tetrahydropyrimidin-2-yl)amino)-1H-indazole-6-carboxamido)acetamido)propanoic acid], the Papp A→B at 90 min, 10 µM is over 1 ×10⁻⁶ cm/s. Turning to `O=C(O)C[C@H](NC(=O)CNC(=O)c1cc(NC2=NCC(F)CN2)c2cn[nH]c2c1)c1cc(Br)cc(Br)c1` (stereo partly drawn) [19-(b), (3S)-3-(3,5-dibromophenyl)-3-(2-(4-((5-fluoro-1,4,5,6-tetrahydropyrimidin-2-yl)amino)-1H-indazole-6-carboxamido)acetamido)propanoic acid], the Papp A→B at 90 min, 10 µM was over 1 ×10⁻⁶ cm/s.

For `O=C(O)C[C@H](NC(=O)CNC(=O)c1cc(NC2=NCC(F)CN2)c2cn[nH]c2c1)c1cccc(C(F)F)c1` (stereo partly drawn) [38-(b), (3S)-3-(3-(difluoromethyl)phenyl)-3-(2-(4-((5-fluoro-1,4,5,6-tetrahydropyrimidin-2-yl)amino)-1H-indazole-6-carboxamido)acetamido)propanoic acid], the Papp A→B at 90 min, 10 µM was over 1 ×10⁻⁶ cm/s. In the case of `O=C(O)C[C@H](NC(=O)CNC(=O)c1cc(NC2=NCC(F)CN2)c2cn[nH]c2c1)c1cc(Br)cc(OC(F)F)c1` (stereo partly drawn) [26-(b), (3S)-3-(3-bromo-5-(difluoromethoxy)phenyl)-3-(2-(4-((5-fluoro-1,4,5,6-tetrahydropyrimidin-2-yl)amino)-1H-indazole-6-carboxamido)acetamido)propanoic acid], the Papp A→B at 90 min, 10 µM was over 1 ×10⁻⁶ cm/s. As for `O=C(O)C[C@H](NC(=O)CNC(=O)c1cc(NC2=NCC(F)CN2)c2cn[nH]c2c1)c1cc(Br)cc(OC(F)(F)F)c1` (stereo partly drawn) [32-(b), (3S)-3-(3-bromo-5-(trifluoromethoxy)phenyl)-3-(2-(4-((5-fluoro-1,4,5,6-tetrahydropyrimidin-2-yl)amino)-1H-indazole-6-carboxamido)acetamido)propanoic acid], the Papp A→B at 90 min, 10 µM was over 1 ×10⁻⁶ cm/s. For `O=C(O)C[C@H](NC(=O)CNC(=O)c1cc(NC2=NCC(F)CN2)c2cn[nH]c2c1)c1cccc(C2CC2)c1` (stereo partly drawn) [39-(b), (3S)-3-(3-cyclopropylphenyl)-3-(2-(4-((5-fluoro-1,4,5,6-tetrahydropyrimidin-2-yl)amino)-1H-indazole-6-carboxamido)acetamido)propanoic acid], the Papp A→B at 90 min, 10 µM is over 1 ×10⁻⁶ cm/s.

Take `O=C(O)C[C@H](NC(=O)CNC(=O)c1cc(NC2=NCC(F)CN2)c2cn[nH]c2c1)c1cccc(C(F)(F)F)c1Cl` (stereo partly drawn) [10-(b), (3S)-3-(2-chloro-3-(trifluoromethyl)phenyl)-3-(2-(4-((5-fluoro-1,4,5,6-tetrahydropyrimidin-2-yl)amino)-1H-indazole-6-carboxamido)acetamido)propanoic acid]: the Papp A→B at 90 min, 10 µM was over 1 ×10⁻⁶ cm/s.

As for `O=C(O)C[C@H](NC(=O)CNC(=O)c1cc(NC2=NCC(F)CN2)c2cn[nH]c2c1)c1cc(Br)cc(C(F)(F)F)c1` (stereo partly drawn) [2-(b), (3S)-3-(3-bromo-5-(trifluoromethyl)phenyl)-3-(2-(4-((5-fluoro-1,4,5,6-tetrahydropyrimidin-2-yl)amino)-1H-indazole-6-carboxamido)acetamido)propanoic acid], the Papp A→B at 90 min, 10 µM lay in the range of 0.5 to 1 ×10⁻⁶ cm/s. Regarding `O=C(O)C[C@H](NC(=O)CNC(=O)c1cc(NC2=NCC(F)CN2)c2cn[nH]c2c1)c1cc(Cl)ccc1F` (stereo partly drawn) [22-(b), (3S)-3-(5-chloro-2-fluorophenyl)-3-(2-(4-((5-fluoro-1,4,5,6-tetrahydropyrimidin-2-yl)amino)-1H-indazole-6-carboxamido)acetamido)propanoic acid], the Papp A→B at 90 min, 10 µM is over 1 ×10⁻⁶ cm/s.

`O=C(O)C[C@H](NC(=O)CNC(=O)c1cc(NC2=NCC(F)CN2)c2cn[nH]c2c1)c1ccc(F)c(C(F)(F)F)c1` (stereo partly drawn) [13-(b), (3S)-3-(2-(4-((5-fluoro-1,4,5,6-tetrahydropyrimidin-2-yl)amino)-1H-indazole-6-carboxamido)acetamido)-3-(4-fluoro-3-(trifluoromethyl)phenyl)propanoic acid] displayed a Papp A→B at 90 min, 10 µM of over 1 ×10⁻⁶ cm/s.

Consider `O=C(O)C[C@H](NC(=O)CNC(=O)c1cc(NC2=NCC(F)CN2)c2cn[nH]c2c1)c1ccc(F)c(OC(F)(F)F)c1` (stereo partly drawn) [34-(b), (3S)-3-(2-(4-((5-fluoro-1,4,5,6-tetrahydropyrimidin-2-yl)amino)-1H-indazole-6-carboxamido)acetamido)-3-(4-fluoro-3-(trifluoromethoxy)phenyl)propanoic acid], for which the Papp A→B at 90 min, 10 µM was over 1 ×10⁻⁶ cm/s. Turning to `O=C(O)C[C@H](NC(=O)CNC(=O)c1cc(NC2=NCC(O)CN2)c2cn[nH]c2c1)c1cc(Cl)cc(C(F)(F)F)c1` (stereo partly drawn) [50-(b), (3S)-3-(3-chloro-5-(trifluoromethyl)phenyl)-3-(2-(4-((5-hydroxy-1,4,5,6-tetrahydropyrimidin-2-yl)amino)-1H-indazole-6-carboxamido)acetamido)propanoic acid], the Papp A→B at 90 min, 10 µM was over 1 ×10⁻⁶ cm/s.

Molecule `O=C(O)C[C@H](NC(=O)CNC(=O)c1cc(NC2=NCC(F)CN2)c2cn[nH]c2c1)c1cccc(C(F)(F)F)c1F` (stereo partly drawn) [9-(b), (3S)-3-(2-(4-((5-fluoro-1,4,5,6-tetrahydropyrimidin-2-yl)amino)-1H-indazole-6-carboxamido)acetamido)-3-(2-fluoro-3-(trifluoromethyl)phenyl)propanoic acid] returned a Papp A→B at 90 min, 10 µM of over 1 ×10⁻⁶ cm/s.

Turning to `O=C(O)C[C@H](NC(=O)CNC(=O)c1cc(NC2=NCC(F)CN2)c2cn[nH]c2c1)c1cc(Cl)cc(OC(F)(F)F)c1` (stereo partly drawn) [31-(b), (3S)-3-(3-chloro-5-(trifluoromethoxy)phenyl)-3-(2-(4-((5-fluoro-1,4,5,6-tetrahydropyrimidin-2-yl)amino)-1H-indazole-6-carboxamido)acetamido)propanoic acid], the Papp A→B at 90 min, 10 µM was over 1 ×10⁻⁶ cm/s. For the molecule `O=C(O)C[C@H](NC(=O)CNC(=O)c1cc(NC2=NCC(F)CN2)c2cn[nH]c2c1)c1cc(OC(F)(F)F)ccc1F` (stereo partly drawn) [33-(b), (3S)-3-(2-(4-((5-fluoro-1,4,5,6-tetrahydropyrimidin-2-yl)amino)-1H-indazole-6-carboxamido)acetamido)-3-(2-fluoro-5-(trifluoromethoxy)phenyl)propanoic acid], the Papp A→B at 90 min, 10 µM is over 1 ×10⁻⁶ cm/s. For `O=C(O)C[C@H](NC(=O)CNC(=O)c1cc(NC2=NCC(F)CN2)cc2[nH]ncc12)c1cc(I)cc(C(F)(F)F)c1` (stereo partly drawn) [54-(b), (3S)-3-(2-(6-((5-fluoro-1,4,5,6-tetrahydropyrimidin-2-yl)amino)-1H-indazole-4-carboxamido)acetamido)-3-(3-iodo-5-(trifluoromethyl)phenyl)propanoic acid], the Papp A→B at 90 min, 10 µM lay within 0.1 to 0.5 ×10⁻⁶ cm/s. `O=C(O)C[C@H](NC(=O)CNC(=O)c1cc(NC2=NCC(F)CN2)cc2[nH]ncc12)c1cc(Br)cc(C(F)(F)F)c1` (stereo partly drawn) [53-(b), (3S)-3-(3-bromo-5-(trifluoromethyl)phenyl)-3-(2-(6-((5-fluoro-1,4,5,6-tetrahydropyrimidin-2-yl)amino)-1H-indazole-4-carboxamido)acetamido)propanoic acid] gave a Papp A→B at 90 min, 10 µM of 0.1 to 0.5 ×10⁻⁶ cm/s.
